Data as given in patent US20260076369A1, “USE OF MELATONIN AND/OR PRECURSOR THEREOF FOR DECREASING THE PLANT NITRATE CONTENT” (priority 2022, published 2026).
Marks after values point to notes of the source that are not given here.

Assays:
[1] = test system: French Bean plants (Phaseolus vulgaris); assay: Nitrate concentration in bean leaves after soil application; type: in vivo; details: 20 micromolar total
Procedure: French Bean plants (Phaseolus vulgaris), were cultivated in pots containing a peat substrate and receiving mineral fertilization including 40 kg N/hectare by ammonium nitrate and 20 kg SO3/hectare by magnesium sulfate in a greenhouse under controlled conditions (16 h light/8 h dark and 25° C.). The fertilizers were brought to the surface of the pots after 10 days of culture.
Just after adding the fertilizers, the plants were divided in four groups. The experiment was arranged in a randomized complete block design with six replicates. The Control group (CT) was without any treatment; 3 groups were treated by addition of an aqueous solution of (1) synthetic melatonin (SM) (20 micromolar), (2) phytomelatonin (pM) (20 micromolar) from a Spirulina extract and (3) a combination of synthetic melatonin (10 micromolar), and phytomelatonin from a rich Spirulina extract (CM) (10 micromolar). Applications have been done in the soils 10 days after transplantation and one time every 7 days. Plants were harvested 6 weeks after transplanting and 2 weeks after the last treatment. Then leaves were dried and used for the determination of dry weight and nitrate content. Nitrate concentration in the leaves was determined by High Performance Ionic Chromatography. The results were expressed in mg NO3/g of dry matter.

[2] = test system: Lettuce plants (Lactuca sativa L.); assay: Nitrate concentration in lettuce leaves after foliar spray; type: in vivo; details: for decrease of leaves nitrate content: 20 micromolar, vs control; for Nitrate concentration in lettuce leaves: 20 micromolar spray with Tween 20; for time the decrease of leaf nitrate content is maintained after the treatment: lettuce, 20 micromolar foliar spray
Procedure: Lettuce plants (Lactuca sativa L.), were cultivated in pots containing an alkaline soil and receiving mineral fertilization including ammonium nitrate (NAC 27) in a greenhouse under controlled conditions (16 h light/8 h dark and 25° C.). Once the commercial size of the plants was reached, the plants were divided in three groups. The Control group (CT) was sprayed with water and a surfactant (Tween 20); the melatonin (M) group was sprayed with a solution of 20 micromolar of synthetic melatonin and the adjuvant; and the tryptophan group (Tr) was sprayed with a solution of 20 micromolar of biosynthetic tryptophan and the adjuvant. The plants were harvested 48 h and […] after foliar application at 12 am. Nitrate concentration in the leaves was determined in leaf water extract by colorimetric detection at 415 nm after reaction of nitrate with salicylic acid in acidic medium and the formation of nitrosalicylate. Each treatment and harvest had five plants.

[3] = harvest 48 h after foliar application, CT 1563
[4] = harvest 120 h after foliar application, CT 1452

| SMILES | decrease of nitrate content in bean leaves ([1]; 2 weeks after the last treatment, vs control) [%] | Nitrate content in bean leaves ([1]; applied to soil every 7 days, harvest 2 weeks after last treatment, CT 2.47) | decrease of leaves nitrate content ([2]; 48 h after the treatment) [%] | decrease of leaves nitrate content ([2]; 120 h after the treatment) [%] | Nitrate concentration in lettuce leaves [2, 3] | Nitrate concentration in lettuce leaves [2, 4] | time the decrease of leaf nitrate content is maintained after the treatment [2] |
| --- | --- | --- | --- | --- | --- | --- | --- |
| COc1ccc2[nH]cc(CCNC(C)=O)c2c1 [Melatonin, N-acetyl-5-methoxy tryptamine] | 79 | 0.52* mg/g of dry weight | 53 | 50 | 738* mg kg^−1 fresh weight | 706* mg kg^−1 fresh weight | at least 5 days |
| N[C@@H](Cc1c[nH]c2ccccc12)C(=O)O [tryptophan] | – | – | 50 | 39 | 780* mg kg^−1 fresh weight | 887* mg kg^−1 fresh weight | at least 5 days |
